Results on one molecule are retold here after PMC10163259, “KK-LC-1 as a therapeutic target to eliminate ALDH^+ stem cells in triple negative breast cancer” (Nature Communications, 2023).

This assay addresses T1, KK-LC-1 (Homo sapiens, UniProt Q5H943).
T1 construct: gene CT83; purified KK-LC-1 protein, biotinylated, immobilised on Super Streptavidin sensors
T1 sequence (Q5H943 1-113): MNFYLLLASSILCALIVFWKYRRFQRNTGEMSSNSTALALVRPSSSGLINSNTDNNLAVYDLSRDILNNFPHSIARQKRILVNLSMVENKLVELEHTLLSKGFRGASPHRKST
The assay can be described thus: biolayer interferometry (Octet K2). The assay is classed as binding. The following applies: 30 °C; PBS with 0.1% BSA, 0.01% Tween-20, 1% DMSO; biotinylated KK-LC-1 immobilised; from kon/koff.

The molecule `Cc1ccc(CNC(=O)c2nnc(CN(C)C3CCc4ccccc43)s2)cc1` (stereo not shown) [Z8, Z839878730] gave a Kd of 4.3 µM.
